Literature values, collected in patent publication US12514906B2, “Use of C-type natriuretic peptide variants to treat skeletal dysplasia” (BIOMARIN PHARMACEUTICAL INC., priority 2015, dated 2026).
Where no end group is shown, it is not given here.

What was measured:
cGMP production = conditions: CNP-53 compared with CNP-22
NPR-B = conditions: CNP-53 compared with CNP-22

binding to NPR-B (NPR-B)	Substance	induction of cGMP production (cGMP production)	plasma half-life (in vivo in humans) [min]	in vivo half-life (normal human) [min]
bind similarly	CNP-53: active 53-amino acid peptide generated from pro-CNP by furin cleavage (DLRVDTKSRAAWARLLQEHPNARKYKGANKKGLSKGCFGLKLDRIGSMSGLGC; ends and bridges not checked; cysteine pairing not given here; UniProt P23582 74-126, looked up)	dose-dependent and similar fashion		
bind similarly	CNP: mature 22-amino acid wild type C-type natriuretic peptide	dose-dependent and similar fashion	2.6	2.6
